According to patent publication US9724351B2, “Compounds for the treatment of paramoxyvirus viral infections” (priority 2012, dated 2017):

How the values were obtained:
[1] = Cytotoxicity Determination; assay type: cell-based; conditions: human, HEp-2 cells, without addition of virus, CCK-8 readout, bins (Table 4: greater than 100 μM; Table 5: equal to or less than 100 μM and greater than 10 μM), read-out: 50% cytotoxicity concentration (CC50)
How it was run: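 CC50 was derived from CCK-8 optical density after a 3-4 h reagent incubation. Before that, cells without virus had been treated for 5 days at 37 °C, 5% CO2 with compound at seven ½-step final concentrations from 100 μM, in duplicate wells.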

[2] = system: Respiratory Syncytial Virus (RSV) long strain (ATCC#VR-26); test: RSV Antiviral Assay (CPE reduction assay); assay type: cell-based; conditions: human respiratory syncytial virus, 120 h; HEp-2 cells infected with RSV long strain, 5 days, CCK-8 readout; bins (Table 2: less than 1 μM; Table 3: equal to or higher than 1 μM and less than 50 μM); read-out: 50% effective concentration (EC50)
How it was run: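 Cytopathic-effect protection measured after 5 days at 37 °C, 5% CO2 via CCK-8 dehydrogenase readout at 450 nm (630 nm reference), EC50 regressed from mean O.D. Host HEp-2 cells received RSV long strain at 100 TCID50/well; compound 9-point ⅓ series starting 100 μM or 1 μM, 1% DMSO, duplicate wells.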

Row | SMILES | CC50 at 5 days [1] [µM] | EC50 [2] [µM]
1 | COc1ccc(C(=O)NCC(=O)N/N=C/c2c(C)[nH]c3ccccc23)cc1OC [Compound 403] | > 100 | 1 to 50
2 | COc1ccc(C(=O)NCC(=O)c2ccc(-c3csc4c(F)cccc34)o2)cc1OC [Compound 1351] | > 100 | 1 to 50
3 | C/C(=N\NC(=O)CNC(=O)c1ccc2c(c1)OCCN2C)c1csc2ccccc12 [Compound 470] | > 100 | 1 to 50
4 | CCN(CC)c1ccc(C(=O)NCC(=O)N/N=C(\C)c2csc3ccccc23)cc1 [Compound 469] | 10 to 100 | 1 to 50
5 | COc1cc(C(=O)NCC(=O)N2CCN(c3ccc(F)c(Cl)c3)C2=O)ccc1OCCO [Compound 3900] | > 100 | 1 to 50
6 | COc1cc(C(=O)NCC(=O)c2ccc(OC)c(-c3cnn4ccccc34)n2)ccc1OCCO [Compound 1345] | > 100 | 1 to 50
7 | C=C(C)c1cc(C(=O)CNC(=O)c2ccc(OC)c(OC)c2)nc(-c2csc3c(F)cccc23)c1 [Compound 1237] | 10 to 100 | < 1
8 | CC/C(=N\NC(=O)CNC(=O)c1ccc(OC)c(OC)c1)c1csc2ccccc12 [Compound 415] | 10 to 100 | < 1
9 | COCc1ccc(C(=O)NCC(=O)N/N=C(\C)c2csc3ccccc23)cc1OC [Compound 400-6] | > 100 | 1 to 50
10 | COc1ccc(C(=O)NC(CCC(=O)O)C(=O)c2ccc(OC)c(-c3csc4c(F)cccc34)n2)cc1OC (stereo not shown) [Compound 1821] | 10 to 100 | < 1
11 | COc1cc(C(=O)NCC(=O)c2ccc(OC)c(-c3ccc(F)c(Cl)c3)n2)ccc1OC1COC1 [Compound 1312] | > 100 | < 1
12 | COc1cc(C(=O)NCC(=O)N(C)C(=O)Nc2csc3c(F)cccc23)ccc1OCCO [Compound 2802] | > 100 | 1 to 50
13 | O=C(NCC(=O)c1cccc(-c2csc3c(F)cccc23)n1)c1ccc(OCCO)c(O)c1 [Compound 1230] | 10 to 100 | 1 to 50
14 | COc1cc(C(=O)NC(C)C(=O)c2ccc(OC)c(-c3ccc(F)c(Cl)c3)n2)ccc1OCCO (stereo not shown) [Compound 1839] | 10 to 100 | < 1
15 | CCCC/C(=N\NC(=O)CNC(=O)c1cc(OC)c(OC)cc1Br)c1csc2ccccc12 [Compound 245] | 10 to 100 | 1 to 50
16 | CNCc1ccc(C(=O)NCC(=O)N/N=C(\CCOC)c2csc3c(F)cccc23)cc1OC [Compound 400-24] | > 100 | 1 to 50
17 | COc1ccc(C(=O)NCC(=O)c2ccc(OC)c(-c3ccc(C)cc3)n2)cc1OC [Compound 1530] | > 100 | 1 to 50
18 | C/C(=N\NC(=O)CNC(=O)c1ccc(N2CCCCC2)cc1)c1csc2ccccc12 [Compound 467] | > 100 | 1 to 50
19 | COc1ccc(C(=O)CNC(=O)c2ccc(OCCO)cc2)nc1-c1ccc(F)c(Cl)c1 [Compound 1308] | > 100 | 1 to 50
20 | COc1cc(C(=O)CNC(=O)c2ccc(OCCO)c(OC)c2)nc(-c2csc3c(F)cccc23)c1 [Compound 1213] | > 100 | < 1

Row | SMILES | CC50 at 5 days [1] [µM] | EC50 [2] [µM]
21 | COc1ccc2scc(/C(C)=N/NC(=O)CNC(=O)c3ccc(OC)c(OC)c3)c2c1 [Compound 400-9] | 10 to 100 | 1 to 50
22 | COc1cc(C(=O)NCC(=O)c2cccc(-c3csc4c(F)cccc34)n2)ccc1OCCO [Compound 1209] | 10 to 100 | < 1
23 | COc1cc(C(=O)N[C@@H](CO)C(=O)c2ccc(OC)c(-c3ccc(F)c(Cl)c3)n2)ccc1OCCO [Compound 1832] | 10 to 100 | < 1
24 | COc1ccc(C(=O)NCC(=O)N/N=C(\CCc2ccccc2)c2csc3ccccc23)cc1OC [Compound 495] | 10 to 100 | 1 to 50
25 | COc1cc(C(=O)NCC(=O)c2ccc(OC)c(-c3ccc(F)cc3F)n2)ccc1OCCO [Compound 1601] | > 100 | < 1
26 | COc1cc(C(=O)NCC(=O)c2cc(C)cc(-c3csc4c(F)cccc34)n2)ccc1OCCO [Compound 1217] | > 100 | < 1
27 | COCCOc1ccc(C(=O)NCC(=O)c2ccc(OC)c(-c3ccc(F)c(Cl)c3)n2)cc1 [Compound 1311] | > 100 | 1 to 50
28 | COc1cc(C(=O)NCC(=O)c2ccc(OC)c(-c3csc4c(F)cccc34)n2)ccc1OCCF [Compound 2625] | > 100 | < 1
29 | COc1cc(Cl)c(C(=O)NCC(=O)N/N=C(\C)c2csc3ccccc23)cc1OC [Compound 482] | 10 to 100 | 1 to 50
30 | COCCOc1ccc(C(=O)NCC(=O)N/N=C(\CCOC)c2csc3c(F)cccc23)cc1OC [Compound 513] | > 100 | < 1
31 | CCCn1nc(C(=O)CNC(=O)c2ccc(OC)c(OC)c2)nc1-c1csc2c(F)cccc12 [Compound 1205] | 10 to 100 | 1 to 50
32 | COc1cc(C(=O)NCC(=O)N(C)/N=C/c2c(C)sc3c(F)cccc23)ccc1OCCO [Compound 2300] | 10 to 100 | < 1
33 | COc1ccc(C(=O)NCC(=O)c2ccc(OC)c(-c3ccc(N4CCOCC4)cc3)n2)cc1OC [Compound 1506] | 10 to 100 | 1 to 50
34 | CCOc1ccc(C(=O)NCC(=O)N/N=C(\C)c2csc3ccccc23)cc1OCC [Compound 457] | 10 to 100 | < 1
35 | COc1ccc(C(=O)NCC(=O)c2cc(C)cc(-c3csc4c(F)cccc34)n2)cc1OC [Compound 1211] | > 100 | < 1
36 | COc1cc(C(=O)NCC(=O)c2ccc(OC)c(-c3ccc(F)c(Cl)c3)n2)ccc1OCC(C)N (stereo not shown) [Compound 1315] | 10 to 100 | 1 to 50
37 | COc1ccc(C(=O)NCC(=O)N/N=C(\C)c2coc3ccccc23)cc1OC [Compound 439] | > 100 | 1 to 50
38 | C=C(C)/C(=N\NC(=O)CNC(=O)c1ccc(OC)c(OC)c1)c1csc2ccccc12 [Compound 434] | > 100 | 1 to 50
39 | CCN(CC)c1ccc(C(=O)NCC(=O)N/N=C/c2csc3ccccc23)cc1 [Compound 235] | > 100 | 1 to 50
40 | CCCC/C(=N\NC(=O)CNC(=O)c1cc(OC)c(OC)cc1Cl)c1csc2ccccc12 [Compound 247] | > 100 | 1 to 50

Row | SMILES | CC50 at 5 days [1] [µM] | EC50 [2] [µM]
41 | COc1ccc(C(=O)NCC(=O)c2ccc(OC)c(-c3cccc4ncccc34)n2)cc1OC [Compound 1519] | 10 to 100 | 1 to 50
42 | COc1ccc(C(=O)NCC(=O)N/N=C/c2cc3ccccc3o2)cc1OC [Compound 409] | 10 to 100 | 1 to 50
43 | CCOc1cc(-c2nc(C(=O)CNC(=O)c3ccc(OC)c(OC)c3)ccc2OC)cc2ccccc12 [Compound 1509] | > 100 | 1 to 50
44 | COc1ccc(C(=O)NCC(=O)N/N=C(\C)c2csc3ccc(O)cc23)cc1OC [Compound 400-8] | 10 to 100 | 1 to 50
45 | CCCCCC/C(=N\NC(=O)CNC(=O)c1ccc(OC)c(OC)c1)c1csc2ccccc12 [Compound 453] | 10 to 100 | 1 to 50
46 | COc1ccc(C(=O)NCC(=O)N(C)/N=C/c2c(C#N)sc3c(F)cccc23)cc1OCCO [Compound 2303] | > 100 | 1 to 50
47 | COc1ccc(C(=O)NCC(=O)c2ccc(OC)c(-c3ccc4ccccc4c3)n2)cc1OC [Compound 1517] | > 100 | 1 to 50
48 | COc1ccc(C(=O)NCC(=O)c2cc(Cl)cc(-c3csc4c(F)cccc34)n2)cc1OC [Compound 2604] | > 100 | 1 to 50
49 | COc1cc(C(=O)NCC(=O)c2cc(C(C)(C)C)cc(-c3ccc(F)c(Cl)c3)n2)ccc1OCCO [Compound 2115] | 10 to 100 | < 1
50 | CCOc1ccc(C(=O)NCC(=O)N/N=C(\CC2CCCCC2)c2csc3ccccc23)cc1OC [Compound 460] | > 100 | < 1
51 | COc1ccc(C(=O)NCC(=O)N/N=C(\C)c2c(C)sc3ccccc23)cc1OC [Compound 413] | 10 to 100 | 1 to 50
52 | COc1ccc(C(=O)NCC(=O)c2ccc(O)c(-c3csc4c(F)cccc34)n2)cc1OC [Compound 1335] | 10 to 100 | < 1
53 | COc1ccc(C(=O)NCC(=O)N/N=C(\CCO)c2csc3c(F)cccc23)cc1OC [Compound 400-13] | > 100 | 1 to 50
54 | COc1ccc(C(=O)NCC(=O)c2ccc(OC)c(-c3ccc4cnn(C)c4c3)n2)cc1OC [Compound 1503] | 10 to 100 | 1 to 50
55 | COc1ccc(C(=O)NCC(=O)c2ccc(OC)c(-c3ccc(F)cc3)n2)cc1OC [Compound 1515] | > 100 | < 1
56 | COc1ccc(C(=O)NCC(=O)N/N=C(\C)c2noc3ccccc23)cc1OC [Compound 491] | > 100 | 1 to 50
57 | COc1cc(C(=O)NCC(=O)c2ccc(OC)c(-c3c(Cl)sc4c(F)cccc34)n2)ccc1OCCO [Compound 2621] | > 100 | < 1
58 | COc1ccc(C(=O)NCC(=O)N/N=C2\CCSc3ccccc32)cc1OC [Compound 451] | > 100 | 1 to 50
59 | COc1ccc(C(=O)NCC(=O)N/N=C(\CF)c2csc3ccccc23)cc1OC [Compound 444] | > 100 | 1 to 50
